The text below walks through data of US20260306440A1, “USE OF SMALL MOLECULES TO INCREASE HYPOXIA INDUCIBLE FACTOR (HIF) ACTIVITY” (BROWN UNIVERSITY, priority 2023, published 2026).

The test system of assay [1] is VEGF. The assay is described as follows: Expression of VEGF protein in SW480 cells treated with compound (FIG. 4). Type of assay: cell-based. The note with it: normoxia 6 h (FIG. 4). The source says:
(§1) Normoxia refers to a regular cell culture condition at 21% oxygen concentration.

Assay [2] has as its system erythropoietin (EPO) mRNA. The assay is described as follows: EPO mRNA expression in HCT116 cells by real-time PCR. To be noted: HCT116, normoxia or hypoxia, indicated durations (FIG. 31). Type of assay: cell-based. Here is the method: Total RNA was extracted from cells using the RNeasy Mini Kit (Qiagen). cDNA was obtained by reverse transcription with random primers using the SuperScript II First-Strand Synthesis System (Invitrogen). Real-time PCR reactions were performed with SYBR Green Master Mix (Applied Biosystems) using the QuantStudio™ 6 Pro Real-Time PCR System.
(§2) Hypoxic conditions (0.5% O2) were achieved by culturing cells in a hypoxia chamber (HypOxygen H35 HypOxystation) which controls and maintains a stable level of oxygen, carbon dioxide, temperature and humidity.
as §1
Cells were treated for indicated durations in normoxia or hypoxia. Extracted RNA was analyzed by real-time PCR. M: MG132 (5 μM). Statistic analysis: two-way anova+Dunnett's multiple comparisons test.

In a further assay the test system is PGK1. The assay is described as follows: Luciferase reporter assay, PGK1-HRE::dLUC (HCT116 or SW480 stable cell lines). The note with it: HCT116 and SW480, normoxia and hypoxia, 6 h (FIGS. 5-24). Type of assay: cell-based, human. Here is the method:
(§3) HCT116 or SW480 cells were transfected using lipofectamine 2000 (Invitrogen, USA) with pGL4.22-VEGF-HRE::dLUC or pGL4.22-PGK1-HRE::dLUC plasmids expressing the luciferase reporter with hypoxia response element (HRE) derived from the human PGK1 promoter or the human VEGF promoter (Walton Z. E. et al., Cell. 2018 Jun. 28; 174(1):72-87). Cells were cultured and selected in 2 μg/mL (for HCT116) or 4 μg/mL (for SW480) puromycin-containing DMEM medium (Cytiva HyClone) after 24 h of transfection. Individual clones were picked and expanded. Verification of the luciferase reporter-bearing cells were performed by measuring the bioluminescence in hypoxia upon addition of the substrate (luciferin) using the IVIS imaging system.
(§4) Luciferase-reporter expressing cells were seeded in 96-well black plates at a density of 2~4×10^4 cells/well. Treatment with compounds were performed on the next day for 6 h under normoxia or hypoxia. After substrate (luciferin) addition, plates were imaged for luminescence intensity in the IVIS imaging system.
as §2, §1
(In general: A reporter such as luciferase makes a cellular process visible.)

For assay [3], the system named is VEGF. Nature of the assay: Luciferase reporter assay, VEGF-HRE::dLUC (HCT116 or SW480 stable cell lines). It is filed as cell-based, human. On the procedure: as §3, §4, §2, §1
A further assay deals with HIF-1α. Nature of the assay: Expression of HIF-1α protein in cancer cell lines treated with compound (FIGS. 1-4, 29, 30, 32). Type of assay: cell-based.
Text: as §2, §1

[4] abbreviates: hypoxia (0.5% O2), FIG. 2: SW480 cells, 6 h.
Setting [5] is: normoxia (21% O2), FIGS. 1, 3, 4: SW480, RCC4 cells, 6 h.

Take `O=C(O)c1ccc(N2C(=O)C(=Cc3ccc(-c4ccc([N+](=O)[O-])cc4)o3)C=C2c2ccccc2)cc1` [4E1Rcat]: the VEGF expression entry in the assay on VEGF [1] was “increase”. Further, in assay [2], the “erythropoietin (EPO) mRNA expression” value is listed as “increases”. In addition, in the assay with PGK1, the “expression of PGK1 as measured in a luciferase assay” value is on record as “increases”. Further, the “VEGF upregulation as measured by a luciferase assay, despite incubation with siRNA EIF4E” value with VEGF [3] (HCT116, hypoxia 6 h, two different eIF4E siRNAs for 48 hours (FIG. 26)) is recorded as “upregulated”; in the assay with VEGF [3] (HCT116, normoxia 6 h, two different eIF4E siRNAs for 48 hours (FIG. 25)) it was “upregulated”; in the assay on VEGF [3] (SW480, hypoxia 6 h, two different eIF4E siRNAs for 48 hours (FIG. 28)), “upregulated”; in the assay with VEGF [3] (SW480, normoxia 6 h, two different eIF4E siRNAs for 48 hours (FIG. 27)) it was “upregulated”. Moreover, in the assay with VEGF [3] (HCT116 and SW480, normoxia and hypoxia, 6 h (FIGS. 5-24)), the “expression of VEGF as measured in a luciferase assay” value is on record as “increases”. Also, the HIF-1α expression entry in the assay with HIF-1α (HCT116, normoxia, 6, 8 or 10 hours (FIG. 29)) is “increases”. For the same compound, the “expression of HIF-1α” value was “increases” in the assay on HIF-1α (HT29 (colorectal cancer) cells, normoxia 6 h (FIG. 30)); “increases” with HIF-1α (PANC1 (pancreatic cancer) cells, normoxia 6 h (FIG. 30)); “increase” in the assay on HIF-1α (setting [4]); “increase” in the assay on HIF-1α (setting [5]).

For the compound `CC1=NN(c2ccc(C(=O)O)cc2)C(=O)/C1=C/c1ccc(-c2cc(C)c(C)cc2[N+](=O)[O-])o1` [C 646], the VEGF expression entry in the assay with VEGF [1] is “increase”. Moreover, the “expression of HIF-1α” value with HIF-1α (setting [4]) and in the assay on HIF-1α (setting [5]) was “increase” each time.

With `CCc1ccc(/C=C/C(=O)Nc2ccc(C(C)=O)cc2)o1` [Heclin], in the assay with VEGF [1], the VEGF expression result is on record as “increase”. Also, the “expression of HIF-1α” value in the assay on HIF-1α (setting [4]) and in the assay on HIF-1α (setting [5]) was “increase” each time.

As for `CCOC(=O)c1ccc(N2NC(=O)/C(=C/c3ccc([N+](=O)[O-])o3)C2=O)cc1` [PYR 41], the VEGF expression result with VEGF [1] was “increase”. Moreover, the HIF-1α expression entry in the assay on HIF-1α (HCT116, hypoxia (FIG. 32)) is “increases”; with HIF-1α (RCC4 renal cell carcinoma cells, normoxia (FIG. 32)), “increases”; with HIF-1α (SW480, hypoxia (FIG. 32)) it was “increases”; in the assay with HIF-1α (SW480, normoxia (FIG. 32)), “increases”. For the same compound, the “expression of HIF-1α” value in the assay with HIF-1α (setting [4]) and in the assay on HIF-1α (setting [5]) was “increase” throughout.
